Each structure is given as a SMILES string.

Data on 20 molecules can be found in ChEMBL document CHEMBL1134183, “First tricyclic oximino derivatives as 5-HT3 ligands” (Bioorg Med Chem Lett, 2001).

Assay [1] concerns the target Serotonin 3 (5-HT3) receptor. Nature of the assay: Binding affinity towards 5-hydroxytryptamine 3 receptor. Format: protein-complex assay.
Assay [2] has as its target T1, Serotonin 3 (5-HT3) receptor (Homo sapiens) (UniProt P46098+A5X5Y0+O95264+Q70Z44+Q8WXA8). Nature of the assay: Compound was tested for agonistic activity against 5-hydroxytryptamine 3 receptor on guinea pig colon at a concentration of 1 uM. The class given is functional, tissue-based. As to conditions: Cavia porcellus, target entry is the homologue from another species.

Assay [3] addresses T1, Serotonin 3 (5-HT3) receptor (Homo sapiens). Nature of the assay: Compound was tested for agonistic activity against 5-hydroxytryptamine 3 receptor on guinea pig colon at a concentration of 10 uM. Format: functional, tissue-based. As to conditions: Cavia porcellus, target entry is the homologue from another species.
Assay [4] has the same target. Nature of the assay: Compound was tested for agonistic activity against 5-hydroxytryptamine 3 receptor on guinea pig colon at a concentration of 10 uM in the presence of 30 uM MDL 72222. The class given is functional, tissue-based. As to conditions: Cavia porcellus, target entry is the homologue from another species.
Assay [5] has the same target. Nature of the assay: Compound was tested for agonistic activity against 5-hydroxytryptamine 3 receptor on guinea pig colon at a concentration of 3 uM. Format: functional, tissue-based. The note with it: Cavia porcellus, target entry is the homologue from another species.
Assay [6] addresses Serotonin 3 (5-HT3) receptor. Nature of the assay: Compound was tested for agonistic activity against 5-HT uptake. The class given is functional.
For assay [7], the target named is T2, 5-hydroxytryptamine receptor 1A (Homo sapiens, UniProt P08908).
T2 sequence (P08908 whole entry): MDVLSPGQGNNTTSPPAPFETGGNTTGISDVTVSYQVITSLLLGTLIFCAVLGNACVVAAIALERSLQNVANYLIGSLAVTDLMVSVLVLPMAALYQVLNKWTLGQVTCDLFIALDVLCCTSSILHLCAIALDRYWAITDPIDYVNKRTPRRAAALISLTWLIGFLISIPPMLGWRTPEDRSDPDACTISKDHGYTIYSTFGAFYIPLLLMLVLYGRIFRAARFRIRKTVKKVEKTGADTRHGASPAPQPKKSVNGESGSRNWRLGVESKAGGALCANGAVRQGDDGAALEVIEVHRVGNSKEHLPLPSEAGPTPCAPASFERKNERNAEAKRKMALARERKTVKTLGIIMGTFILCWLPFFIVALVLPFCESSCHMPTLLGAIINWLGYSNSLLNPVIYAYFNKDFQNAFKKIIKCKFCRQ
Nature of the assay: Compound was tested for binding affinity against 5-hydroxytryptamine 1A receptor.

Assay [8] concerns the target 5-hydroxytryptamine receptor 1B (Homo sapiens, UniProt P28222). Nature of the assay: Compound was tested for binding affinity against 5-hydroxytryptamine 1B receptor.
Assay [9] has as its target Serotonin 2 (5-HT2) receptor (Homo sapiens, UniProt P41595+P28223+P28335). Nature of the assay: Compound was tested for binding affinity against 5-hydroxytryptamine 2 receptor. The class given is protein assay.
Assay [10] has as its target T3, 5-hydroxytryptamine receptor 2C (Homo sapiens, UniProt P28335).
T3 sequence (P28335 whole entry): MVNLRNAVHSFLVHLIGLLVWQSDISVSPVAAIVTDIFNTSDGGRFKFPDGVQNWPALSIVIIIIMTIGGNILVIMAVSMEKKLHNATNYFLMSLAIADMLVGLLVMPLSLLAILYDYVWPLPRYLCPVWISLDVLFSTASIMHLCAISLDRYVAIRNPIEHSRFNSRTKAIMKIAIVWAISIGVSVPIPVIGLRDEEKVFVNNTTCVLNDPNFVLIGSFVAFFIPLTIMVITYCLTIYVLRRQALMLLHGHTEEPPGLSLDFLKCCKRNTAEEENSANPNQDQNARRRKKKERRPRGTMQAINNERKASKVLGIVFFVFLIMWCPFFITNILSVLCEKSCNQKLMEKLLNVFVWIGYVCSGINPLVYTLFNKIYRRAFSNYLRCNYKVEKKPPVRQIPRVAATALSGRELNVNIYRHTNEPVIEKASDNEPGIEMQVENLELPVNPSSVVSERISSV
Nature of the assay: Compound was tested for binding affinity against 5-hydroxytryptamine 2C receptor.

Assay [11] deals with 5-hydroxytryptamine receptor 1D (Homo sapiens, UniProt P28221). Nature of the assay: Compound was tested for binding affinity against 5-hydroxytryptamine 1D receptor.
5-hydroxytryptamine receptor 1D, sequence (P28221 whole entry): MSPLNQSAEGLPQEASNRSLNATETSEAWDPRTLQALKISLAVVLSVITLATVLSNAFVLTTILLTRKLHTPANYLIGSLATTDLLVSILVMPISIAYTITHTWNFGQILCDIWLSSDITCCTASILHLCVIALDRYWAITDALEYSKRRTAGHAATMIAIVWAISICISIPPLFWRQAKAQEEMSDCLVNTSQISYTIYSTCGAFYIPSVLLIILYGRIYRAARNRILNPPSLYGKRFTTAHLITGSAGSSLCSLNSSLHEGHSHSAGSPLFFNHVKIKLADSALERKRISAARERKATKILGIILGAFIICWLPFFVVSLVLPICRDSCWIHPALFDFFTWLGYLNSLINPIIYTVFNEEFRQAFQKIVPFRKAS
Assay [12] addresses T1, Serotonin 3 (5-HT3) receptor (Homo sapiens). Nature of the assay: Compound was tested for agonistic activity against 5-hydroxytryptamine 3 receptor on guinea colon at a concentration 0.01 uM. Format: functional, tissue-based. The note with it: Cavia porcellus, target entry is the homologue from another species.
Assay [13] shares this target. Nature of the assay: Percent of control response to 5-HT3 agonistic activity on guinea colon at a concentration 0.1 uM. Format: functional, tissue-based. As to conditions: Cavia porcellus, target entry is the homologue from another species.
Assay [14] shares this target. Nature of the assay: Percent of control response to 5-HT3 agonistic activity on guinea colon at a concentration 1 uM. Format: functional, tissue-based. As to conditions: Cavia porcellus, target entry is the homologue from another species.
For assay [15] the target is unchanged. Nature of the assay: Percent of control response to 5-HT3 agonistic activity on guinea colon at a concentration 1 uM in the presence of 30 uM MDL 72222. The class given is functional, tissue-based. The note with it: Cavia porcellus, target entry is the homologue from another species.
Assay [16] has the same target. Nature of the assay: Percent of control response to 5-HT3 antagonistic activity on guinea colon at a concentration 0.01 uM. The class given is functional, tissue-based. As to conditions: Cavia porcellus, target entry is the homologue from another species.
Assay [17] shares this target. Nature of the assay: Percent of control response to 5-HT3 antagonistic activity on guinea colon at a concentration 1 uM. The class given is functional, tissue-based. The note with it: Cavia porcellus, target entry is the homologue from another species.
Assay [18] shares this target. Nature of the assay: Percent of control response to 5-HT3 agonistic activity on guinea colon at a concentration 0.01 uM. The class given is functional, tissue-based. As to conditions: Cavia porcellus, target entry is the homologue from another species.
Assay [19] addresses 5-hydroxytryptamine receptor 7 (Homo sapiens) (UniProt P34969). Nature of the assay: Percentage of displacement at 5-hydroxytryptamine 7 receptor at 10e-8 M.
Assay [20] deals with 5-hydroxytryptamine receptor 4 (Homo sapiens, UniProt Q13639). Nature of the assay: Compound was tested for agonistic activity against 5-hydroxytryptamine 4 receptor on guinea colon at a concentration 0.1 uM. Format: functional, tissue-based.
5-hydroxytryptamine receptor 4, sequence (Q13639 whole entry): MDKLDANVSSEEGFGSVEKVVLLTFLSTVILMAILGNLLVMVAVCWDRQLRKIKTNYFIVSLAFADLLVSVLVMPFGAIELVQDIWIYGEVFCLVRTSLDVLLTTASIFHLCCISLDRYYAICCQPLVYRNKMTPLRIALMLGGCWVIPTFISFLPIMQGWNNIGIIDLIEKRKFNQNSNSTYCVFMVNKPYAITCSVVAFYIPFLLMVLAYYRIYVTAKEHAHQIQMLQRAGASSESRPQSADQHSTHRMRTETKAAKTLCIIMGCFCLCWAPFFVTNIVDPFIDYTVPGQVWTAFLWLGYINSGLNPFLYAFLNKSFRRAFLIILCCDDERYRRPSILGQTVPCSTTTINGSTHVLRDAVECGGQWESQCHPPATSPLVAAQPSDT
The target in assay [21] is Serotonin 3 (5-HT3) receptor. Nature of the assay: Compound was tested for binding affinity towards 5-hydroxytryptamine 3 receptor. Format: protein-complex assay.
Assay [22] deals with 5-hydroxytryptamine receptor 6 (Homo sapiens) (UniProt P50406). Nature of the assay: Percentage of displacement at 5-hydroxytryptamine 6 receptor at 10e-8 M.
5-hydroxytryptamine receptor 6 (Homo sapiens), sequence (P50406 whole entry): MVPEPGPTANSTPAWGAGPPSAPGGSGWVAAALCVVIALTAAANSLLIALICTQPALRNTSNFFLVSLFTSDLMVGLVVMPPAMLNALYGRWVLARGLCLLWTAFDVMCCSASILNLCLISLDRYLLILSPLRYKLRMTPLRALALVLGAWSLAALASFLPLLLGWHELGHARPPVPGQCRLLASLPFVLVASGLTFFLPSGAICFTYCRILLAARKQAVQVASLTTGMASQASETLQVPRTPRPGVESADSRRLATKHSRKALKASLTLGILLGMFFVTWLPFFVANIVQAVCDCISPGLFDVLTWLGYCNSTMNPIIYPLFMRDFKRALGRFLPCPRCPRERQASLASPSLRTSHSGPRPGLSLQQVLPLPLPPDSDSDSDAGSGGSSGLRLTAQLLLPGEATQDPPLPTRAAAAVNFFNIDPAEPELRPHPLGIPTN
Assay [23] has as its target Sodium-dependent dopamine transporter (Homo sapiens) (UniProt Q01959). Nature of the assay: Compound was tested for binding affinity against dopaminergic uptake.
The target of assay [24] is Sodium-dependent noradrenaline transporter (Homo sapiens) (UniProt P23975). Nature of the assay: Compound was tested for binding affinity against noradrenergic uptake.
Sodium-dependent noradrenaline transporter (Homo sapiens), sequence (P23975 whole entry): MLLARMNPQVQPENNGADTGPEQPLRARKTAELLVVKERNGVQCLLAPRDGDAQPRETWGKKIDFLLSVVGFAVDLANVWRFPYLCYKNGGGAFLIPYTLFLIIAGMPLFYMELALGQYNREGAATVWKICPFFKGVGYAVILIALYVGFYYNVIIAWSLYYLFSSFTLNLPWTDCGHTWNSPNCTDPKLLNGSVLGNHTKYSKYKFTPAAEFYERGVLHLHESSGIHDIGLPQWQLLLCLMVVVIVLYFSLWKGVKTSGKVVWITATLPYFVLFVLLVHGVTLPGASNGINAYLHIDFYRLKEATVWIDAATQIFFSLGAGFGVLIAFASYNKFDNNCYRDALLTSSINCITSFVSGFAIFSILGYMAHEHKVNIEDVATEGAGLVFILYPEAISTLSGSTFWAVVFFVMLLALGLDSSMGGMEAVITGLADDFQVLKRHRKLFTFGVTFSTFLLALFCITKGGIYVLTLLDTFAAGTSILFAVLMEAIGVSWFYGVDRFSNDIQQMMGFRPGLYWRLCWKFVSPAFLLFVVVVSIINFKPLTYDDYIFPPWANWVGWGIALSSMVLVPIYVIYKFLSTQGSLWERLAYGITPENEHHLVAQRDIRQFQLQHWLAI
Assay [25] in a line: Compound was tested for binding affinity against 5-HT1 receptor.

Sodium-dependent dopamine transporter (Homo sapiens), sequence (Q01959 whole entry): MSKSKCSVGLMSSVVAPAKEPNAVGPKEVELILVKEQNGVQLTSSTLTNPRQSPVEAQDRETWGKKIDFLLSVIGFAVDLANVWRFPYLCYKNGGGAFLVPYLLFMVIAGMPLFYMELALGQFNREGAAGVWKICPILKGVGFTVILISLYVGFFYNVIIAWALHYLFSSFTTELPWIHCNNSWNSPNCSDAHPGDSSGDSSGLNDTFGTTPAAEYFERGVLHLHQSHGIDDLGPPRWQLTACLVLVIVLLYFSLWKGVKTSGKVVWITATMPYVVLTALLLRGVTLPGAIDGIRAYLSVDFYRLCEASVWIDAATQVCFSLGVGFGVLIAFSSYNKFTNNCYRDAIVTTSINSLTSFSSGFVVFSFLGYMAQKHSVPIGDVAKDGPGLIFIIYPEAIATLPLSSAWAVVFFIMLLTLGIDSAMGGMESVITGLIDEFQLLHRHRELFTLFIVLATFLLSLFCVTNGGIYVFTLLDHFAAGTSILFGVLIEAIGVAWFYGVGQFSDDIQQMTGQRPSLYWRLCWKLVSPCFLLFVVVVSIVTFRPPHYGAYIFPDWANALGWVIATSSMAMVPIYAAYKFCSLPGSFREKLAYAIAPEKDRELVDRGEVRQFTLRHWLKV
5-hydroxytryptamine receptor 1B, sequence (P28222 whole entry): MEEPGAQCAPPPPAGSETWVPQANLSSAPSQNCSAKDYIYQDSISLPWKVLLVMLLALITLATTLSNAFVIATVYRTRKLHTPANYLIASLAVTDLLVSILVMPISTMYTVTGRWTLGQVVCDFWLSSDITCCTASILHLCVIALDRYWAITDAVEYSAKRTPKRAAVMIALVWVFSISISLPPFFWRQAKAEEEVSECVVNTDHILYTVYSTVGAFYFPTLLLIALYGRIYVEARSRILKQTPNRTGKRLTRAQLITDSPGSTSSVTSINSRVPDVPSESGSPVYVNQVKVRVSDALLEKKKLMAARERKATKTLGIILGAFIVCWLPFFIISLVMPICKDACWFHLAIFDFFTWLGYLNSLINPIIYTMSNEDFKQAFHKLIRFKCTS
5-hydroxytryptamine receptor 7 (Homo sapiens), sequence (P34969 whole entry): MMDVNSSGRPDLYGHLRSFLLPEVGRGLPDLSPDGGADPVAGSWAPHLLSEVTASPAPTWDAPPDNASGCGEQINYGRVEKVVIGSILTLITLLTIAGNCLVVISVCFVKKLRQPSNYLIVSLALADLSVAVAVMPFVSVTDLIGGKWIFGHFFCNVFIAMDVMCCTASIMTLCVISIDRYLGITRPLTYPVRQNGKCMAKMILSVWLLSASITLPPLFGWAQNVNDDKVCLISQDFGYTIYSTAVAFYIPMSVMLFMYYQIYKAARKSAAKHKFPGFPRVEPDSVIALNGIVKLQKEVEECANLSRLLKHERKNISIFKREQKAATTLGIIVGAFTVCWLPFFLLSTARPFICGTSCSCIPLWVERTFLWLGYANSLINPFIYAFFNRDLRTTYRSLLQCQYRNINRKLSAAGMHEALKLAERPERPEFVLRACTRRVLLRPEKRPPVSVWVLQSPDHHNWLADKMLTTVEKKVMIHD

Take `CN(C)CCO/N=C1\c2ccccc2-n2cccc21`: in assay [1], the “-Log IC50” value stood at 8.24.
`Cc1csc2c1-n1cccc1/C2=N/OCCN(C)Cc1ccccc1`: in assay [1], the “-Log IC50” value is reported as 8.16.
Regarding `Cc1ccc(-c2csc3c2-n2cccc2/C3=N/OCCN)cc1`, in assay [1], the “-Log IC50” value stood at 6.66.
The same measure, in the same setting: the result for `c1ccc(CNCCO/N=C2\c3ccccc3-n3cccc32)cc1` reads 6.54; that for `CN1CCCC1CCO/N=C1\c2ccccc2-n2cccc21` (configuration not stated), 7.85.
For the molecule `CCN(CC)CCO/N=C1\c2sccc2-n2cccc21`, the “-Log IC50” value in [1] is 8.3.
The same measure, in the same setting: the result for `Cc1csc2c1-n1cccc1/C2=N/OCCN` reads 7.62.
`NCCO/N=C1\c2ccccc2-n2cccc21`: the “-Log IC50” value in assay [1] came out at 6.66.
On to `NCCc1c[nH]c2ccc(O)cc12`, for which the Agonist activity came out at 41 in assay [2], 90 in assay [3], 0 in [4] and 76 in assay [5].
For `CN(CCO/N=C1\c2sccc2-n2cccc21)Cc1ccccc1`, in [1], the “-Log IC50” value amounted to 7.63.
On the same count and under the same terms, the result for `Cc1csc2c1-n1cccc1/C2=N/OCCCN(C)Cc1ccccc1` reads 7.47.
Turning to `Cc1csc2c1-n1cccc1/C2=N/OCCNCc1ccccc1`, the “-Log IC50” value in assay [1] is 7.54.
Still for that read-out and setting: the same measure for `Cc1csc2c1-n1cccc1/C2=N/OCCN1CCCCC1`: 8.4; for `CN(C)CCO/N=C1\c2sccc2-n2cccc21`: 8.46; for `CN(C)CCO/N=C1\c2cc(Cl)ccc2-n2cccc21`: 7.06.
Same read-out and setting: the same measure for `Cc1csc2c1-n1cccc1/C2=N/OCCC1CCCN1C` (configuration not stated): 8.7.
Regarding `c1ccc(CN2CCN(c3nc4sccc4n4cccc34)CC2)cc1`, the “-Log IC50” value in assay [1] was found to be 8.34.
For `Cc1csc2c1-n1cccc1/C2=N/OCCCN(C)C`, the “-Log IC50” value in [1] is 8.6.
Take `Cc1csc2c1-n1cccc1/C2=N/OCCN1CCCC1`: the “-Log IC50” value in assay [1] amounted to 8.7.
By IC50 is commonly meant the midpoint of a concentration-inhibition curve. A lower IC50 goes with greater potency in that assay. In the case of `Cc1csc2c1-n1cccc1/C2=N/OCCN(C)C`, the “-Log IC50” value in assay [6] was found to be 6.92; in [9], 5.5; in assay [21], 9.1; in assay [25], 5.66. Also, the IC50 is 5750 nM in assay [7]; 2690 nM in assay [8]; 2140 nM in assay [10]; 479 nM in assay [11]; 871 nM in [20]. In addition, the Activity came to 0 in assay [12]; 37 in assay [13]; 0 in assay [14]; 73 in [15]; 64 in assay [16]; 16 in [17]. Besides, the Activity in assay [18] turned out to be 0. Further, the Displacement in assay [19] and in assay [22] was 0% throughout. In addition, the Affinity came out at 5.28% in assay [23] and 6% in assay [24].
